US10966993B2, “Pharmaceutical composition comprising a sulfonylurea drug and preparation method thereof” (JIANGSU AOSAIKANG PHARMACEUTICAL CO., LTD., priority 2016, dated 2021)
Values after ≈ are worked out from the molar mass of the structure shown. Read-outs that look alike come from different tables or passages of the source.

Assay: Test on the solubility of glibenclamide in additive/cyclodextrin solutions
Assay type: physicochemical
Details: 25 °C, thermodynamic from solid
Procedure: An excess amount of glibenclamide powder was added into an aqueous solution comprising different proportion of additive (e.g., meglumine, sodium carbonate, sodium hydrogen carbonate or sodium hydroxide) and cyclodextrin (hydroxypropyl-β-cyclodextrin) to form a suspension. The suspension was placed in a constant shaking incubator, and shaken for 1 h at 25±1° C. The shaken suspension was filtered with a 0.45 μm hydrophilic filter membrane, with the primary filtrate being disposed and the subsequent filtrate being collected. The subsequent filtrate was diluted to appropriate times with a PBS buffer having a pH of 7.4, the absorbance of the diluted subsequent filtrate was determined at a wavelength of 225 nm, and the solubility of glibenclamide in the diluted subsequent filtrate was calculated according to the absorbance. Corresponding solubility curves were plotted with the solubility of glibenclamide as the vertical axis and the concentration of cyclodextrin and/or meglumine as the horizontal axis.

`COc1ccc(Cl)cc1C(=O)NCCc1ccc(S(=O)(=O)NC(=O)NC2CCCCC2)cc1` [glibenclamide, 5-chloro-N-(4-[N-(cyclohexylcarbamoyl)aminosulfonyl]phenethyl)-2-methoxybenzamide] showed a solubility at 1 h (aqueous buffer, meglumine 0.1% (w/v), cyclodextrin 0% (w/v), read-out: Solubility) of 960 µg/mL (≈ 1.94 mM), a solubility at 1 h (aqueous buffer, meglumine 0.5% (w/v), cyclodextrin 0% (w/v), read-out: Solubility) of 1760 µg/mL (≈ 3.56 mM) and a solubility at 1 h (aqueous buffer, meglumine 1% (w/v), cyclodextrin 0% (w/v), read-out: Solubility) of 4930 µg/mL (≈ 9.98 mM). For the same compound, the solubility at 1 h (aqueous buffer, meglumine 2.5% (w/v), cyclodextrin 0% (w/v), read-out: Solubility) was 8030 µg/mL (≈ 16.3 mM), the solubility at 1 h (aqueous with cosolvent or surfactant or cyclodextrin, cyclodextrin only, from 0.5% (w/v) to 40% (w/v), read-out: water solubility of glibenclamide) was 1.3 to 120 µg/mL (≈ 0.00263 to 0.243 mM) and the solubility at 1 h (aqueous with cosolvent or surfactant or cyclodextrin, meglumine 0% (w/v), 2-hydroxypropyl-β-cyclodextrin 0.5% (w/v), read-out: Solubility) was 1.3 µg/mL (≈ 0.00263 mM). It also gave a solubility at 1 h (aqueous with cosolvent or surfactant or cyclodextrin, meglumine 0% (w/v), 2-hydroxypropyl-β-cyclodextrin 1.25% (w/v), read-out: Solubility) of 3.1 µg/mL (≈ 0.00628 mM), a solubility at 1 h (aqueous with cosolvent or surfactant or cyclodextrin, meglumine 0% (w/v), 2-hydroxypropyl-β-cyclodextrin 2.5% (w/v), read-out: Solubility) of 5.8 µg/mL (≈ 0.0117 mM) and a solubility at 1 h (aqueous with cosolvent or surfactant or cyclodextrin, meglumine 0% (w/v), 2-hydroxypropyl-β-cyclodextrin 5% (w/v), read-out: Solubility) of 14 µg/mL (≈ 0.0283 mM). For the same compound, the solubility at 1 h (aqueous with cosolvent or surfactant or cyclodextrin, meglumine 0% (w/v), 2-hydroxypropyl-β-cyclodextrin 10% (w/v), read-out: Solubility) was 32 µg/mL (≈ 0.0648 mM), the solubility at 1 h (aqueous with cosolvent or surfactant or cyclodextrin, meglumine 0.1% (w/v), 2-hydroxypropyl-β-cyclodextrin 0.5% (w/v), read-out: Solubility) was 1250 µg/mL (≈ 2.53 mM) and the solubility at 1 h (aqueous with cosolvent or surfactant or cyclodextrin, meglumine 0.1% (w/v), 2-hydroxypropyl-β-cyclodextrin 1.25% (w/v), read-out: Solubility) was 1420 µg/mL (≈ 2.87 mM). For the same compound, the solubility at 1 h (aqueous with cosolvent or surfactant or cyclodextrin, meglumine 0.1% (w/v), 2-hydroxypropyl-β-cyclodextrin 2.5% (w/v), read-out: Solubility) was 1660 µg/mL (≈ 3.36 mM), the solubility at 1 h (aqueous with cosolvent or surfactant or cyclodextrin, meglumine 0.1% (w/v), 2-hydroxypropyl-β-cyclodextrin 5% (w/v), read-out: Solubility) was 2170 µg/mL (≈ 4.39 mM) and the solubility at 1 h (aqueous with cosolvent or surfactant or cyclodextrin, meglumine 0.1% (w/v), 2-hydroxypropyl-β-cyclodextrin 10% (w/v), read-out: Solubility) was 2170 µg/mL (≈ 4.39 mM). It also gave a solubility at 1 h (aqueous with cosolvent or surfactant or cyclodextrin, meglumine 0.1% (w/v), 2-hydroxypropyl-β-cyclodextrin 20% (w/v), read-out: Solubility) of 2230 µg/mL (≈ 4.51 mM), a solubility at 1 h (aqueous with cosolvent or surfactant or cyclodextrin, meglumine 0.1% (w/v), 2-hydroxypropyl-β-cyclodextrin 30% (w/v), read-out: Solubility) of 2210 µg/mL (≈ 4.47 mM) and a solubility at 1 h (aqueous with cosolvent or surfactant or cyclodextrin, meglumine 0.1% (w/v), 2-hydroxypropyl-β-cyclodextrin 40% (w/v), read-out: Solubility) of 2280 µg/mL (≈ 4.62 mM). The solubility at 1 h (aqueous with cosolvent or surfactant or cyclodextrin, meglumine 0.1% (w/v), cyclodextrin from 0.5% (w/v) to 5% (w/v), read-out: water solubility of glibenclamide) was 1250 to 2170 µg/mL (≈ 2.53 to 4.39 mM), the solubility at 1 h (aqueous with cosolvent or surfactant or cyclodextrin, meglumine 0.1% (w/v), cyclodextrin from 5% (w/v) to 40% (w/v), read-out: solubility of glibenclamide) was about 2170 µg/mL (≈ 4.39 mM) and the solubility at 1 h (aqueous with cosolvent or surfactant or cyclodextrin, meglumine 5% (w/v), 2-hydroxypropyl-β-cyclodextrin 5% (w/v), read-out: Solubility) was 25200 µg/mL (≈ 51.1 mM). It also gave a solubility at 1 h (aqueous with cosolvent or surfactant or cyclodextrin, meglumine 5% (w/v), 2-hydroxypropyl-β-cyclodextrin 10% (w/v), read-out: Solubility) of 34400 µg/mL (≈ 69.7 mM), a solubility at 1 h (aqueous with cosolvent or surfactant or cyclodextrin, meglumine 5% (w/v), 2-hydroxypropyl-β-cyclodextrin 20% (w/v), read-out: Solubility) of 42200 µg/mL (≈ 85.5 mM) and a solubility at 1 h (aqueous with cosolvent or surfactant or cyclodextrin, meglumine 5% (w/v), 2-hydroxypropyl-β-cyclodextrin 30% (w/v), read-out: Solubility) of 49400 µg/mL (≈ 99.9 mM). For the same compound, the solubility at 1 h (aqueous with cosolvent or surfactant or cyclodextrin, meglumine 5% (w/v), 2-hydroxypropyl-β-cyclodextrin 40% (w/v), read-out: Solubility) was 51000 µg/mL (≈ 103 mM), the solubility at 1 h (aqueous with cosolvent or surfactant or cyclodextrin, meglumine 5% (w/v), cyclodextrin 0% (w/v), read-out: Solubility) was 13000 µg/mL (≈ 26.4 mM) and the solubility at 1 h (aqueous with cosolvent or surfactant or cyclodextrin, meglumine 5% (w/v), cyclodextrin from 5% (w/v) to 30% (w/v), read-out: water solubility of glibenclamide) was 25200 to 49400 µg/mL (≈ 51.1 to 99.9 mM). For the same compound, the solubility at 1 h (aqueous with cosolvent or surfactant or cyclodextrin, meglumine 5% (w/v), cyclodextrin from 30% (w/v) to 40% (w/v), read-out: solubility of glibenclamide) was about 49400 µg/mL (≈ 99.9 mM), the solubility at 1 h (aqueous with cosolvent or surfactant or cyclodextrin, meglumine 10% (w/v), cyclodextrin 0% (w/v), read-out: Solubility) was 19000 µg/mL (≈ 38.6 mM) and the solubility at 1 h (aqueous with cosolvent or surfactant or cyclodextrin, meglumine only, from 0.1% (w/v) to 10% (w/v), read-out: water solubility of glibenclamide) was 960 to 19000 µg/mL (≈ 1.94 to 38.6 mM).
